{"source": "patent US20030032003A1", "about": "“IN VIVO SELECTION” (priority 2000, published 2003)", "key": {"Neo −/− mice": {"test_system": "Neo −/− mice", "assay": "Acute toxicity of G418", "assay_type": "in vivo, mouse", "settings": "10 days", "procedure": "(§1) As in Example 1, applicants characterized the tissue specific expression of neoR mRNA and furthermore, investigated acute tissue specific toxicities of G418 in neo^R+/+ mice. The neoR mRNA reached highest levels in testis, intermediate in brain, kidney and liver. Low levels were detected in heart skeletal muscle and lungs and almost undetectable low levels in spleen. For acute toxicity determination the animals were treated with a single dose i.p. at concentrations starting at 47 mg/kg and increased thereafter by approximately 50% for each consecutive dose. The neoR expression in transgenic animals caused 10-fold increase of the approximate lethal dose of G418 (Table 4)."}, "neo +/+ transgenic mice": {"test_system": "neo +/+ transgenic mice", "assay": "Acute toxicity of G418", "assay_type": "in vivo, mouse", "settings": "for survival / body weight, percentage of the body weight before the experiment: Neo +/+, 10 days", "procedure": "as §1"}, "neo^R mice": {"test_system": "neo^R mice", "assay": "Biochemical analysis of mouse serum after G418", "assay_type": "in vivo", "settings": "335 mg/kg single i.p., serum 48 hrs after treatment", "procedure": "(§2) BUN and CRE levels are diagnostic markers of kidney damage. […] In these transgenic animals G418 at the highest dose (1140 mg/kg) caused immediate toxicity resulting in death due to breath failure within 10 minutes after injection."}, "wildtype mice": {"test_system": "wildtype mice", "assay": "Biochemical analysis of mouse serum after G418", "assay_type": "in vivo", "settings": "335 mg/kg single i.p., serum 48 hrs after treatment", "procedure": "as §2"}}, "data": [{"smiles": "CN[C@@H]1[C@@H](O)[C@@H](O[C@@H]2[C@@H](O)[C@H](O[C@H]3O[C@H]([C@@H](C)O)[C@@H](O)[C@H](O)[C@H]3N)[C@@H](N)C[C@H]2N)OC[C@]1(C)O", "note": "[G418]", "values": [{"measurement": "body weight, percentage of the body weight before the experiment", "setting": "Neo −/− mice; 47 mg/kg single i.p.", "value": "101 ± 1", "unit": "%"}, {"measurement": "survival", "setting": "Neo −/− mice; 47 mg/kg single i.p.", "value": "surv (surv, animals survived the 10 day period)"}, {"measurement": "body weight, percentage of the body weight before the experiment", "setting": "Neo −/− mice; 68 mg/kg single i.p.", "value": "104 ± 4", "unit": "%"}, {"measurement": "survival", "setting": "Neo −/− mice; 68 mg/kg single i.p.", "value": "surv (surv, animals survived the 10 day period)"}, {"measurement": "body weight, percentage of the body weight before the experiment", "setting": "Neo −/− mice; 103 mg/kg single i.p.", "value": "73 ± 6", "unit": "%"}, {"measurement": "survival", "setting": "Neo −/− mice; 103 mg/kg single i.p.", "value": 8, "unit": "days"}, {"measurement": "body weight, percentage of the body weight before the experiment", "setting": "Neo −/− mice; 153 mg/kg single i.p.", "value": "73 ± 5", "unit": "%"}, {"measurement": "survival", "setting": "Neo −/− mice; 153 mg/kg single i.p.", "value": 8, "unit": "days"}, {"measurement": "body weight, percentage of the body weight before the experiment", "setting": "Neo −/− mice; 230 mg/kg single i.p.", "value": "85 ± 2", "unit": "%"}, {"measurement": "survival", "setting": "Neo −/− mice; 230 mg/kg single i.p.", "value": 4, "unit": "days"}, {"measurement": "body weight, percentage of the body weight before the experiment", "setting": "Neo −/− mice; 345 mg/kg single i.p.", "value": "97 ± 1", "unit": "%"}, {"measurement": "survival", "setting": "Neo −/− mice; 345 mg/kg single i.p.", "value": 1, "unit": "days"}, {"measurement": "body weight, percentage of the body weight before the experiment", "setting": "Neo −/− mice; 480 mg/kg single i.p.", "value": "99 ± 1", "unit": "%"}, {"measurement": "survival", "setting": "Neo −/− mice; 480 mg/kg single i.p.", "value": 1, "unit": "days"}, {"measurement": "body weight, percentage of the body weight before the experiment", "setting": "Neo −/− mice; 778 mg/kg single i.p.", "value": "100 ± 2", "unit": "%"}, {"measurement": "survival", "setting": "Neo −/− mice; 778 mg/kg single i.p.", "value": 1, "unit": "days"}, {"measurement": "survival", "setting": "neo +/+ transgenic mice; 47 mg/kg single i.p.", "value": "surv (surv, animals survived the 10 day period)"}, {"measurement": "body weight, percentage of the body weight before the experiment", "setting": "neo +/+ transgenic mice; 68 mg/kg single i.p.", "value": "100 ± 1", "unit": "%"}, {"measurement": "survival", "setting": "neo +/+ transgenic mice; 68 mg/kg single i.p.", "value": "surv (surv, animals survived the 10 day period)"}, {"measurement": "survival", "setting": "neo +/+ transgenic mice; 103 mg/kg single i.p.", "value": "surv (surv, animals survived the 10 day period)"}, {"measurement": "body weight, percentage of the body weight before the experiment", "setting": "neo +/+ transgenic mice; 153 mg/kg single i.p.", "value": "102 ± 3", "unit": "%"}, {"measurement": "survival", "setting": "neo +/+ transgenic mice; 153 mg/kg single i.p.", "value": "surv (surv, animals survived the 10 day period)"}, {"measurement": "body weight, percentage of the body weight before the experiment", "setting": "neo +/+ transgenic mice; 230 mg/kg single i.p.", "value": "100 ± 2", "unit": "%"}, {"measurement": "survival", "setting": "neo +/+ transgenic mice; 230 mg/kg single i.p.", "value": "surv (surv, animals survived the 10 day period)"}, {"measurement": "body weight, percentage of the body weight before the experiment", "setting": "neo +/+ transgenic mice; 345 mg/kg single i.p.", "value": "98 ± 4", "unit": "%"}, {"measurement": "survival", "setting": "neo +/+ transgenic mice; 345 mg/kg single i.p.", "value": "surv (surv, animals survived the 10 day period)"}, {"measurement": "body weight, percentage of the body weight before the experiment", "setting": "neo +/+ transgenic mice; 480 mg/kg single i.p.", "value": "100 ± 1", "unit": "%"}, {"measurement": "survival", "setting": "neo +/+ transgenic mice; 480 mg/kg single i.p.", "value": "surv (surv, animals survived the 10 day period)"}, {"measurement": "body weight, percentage of the body weight before the experiment", "setting": "neo +/+ transgenic mice; 778 mg/kg single i.p.", "value": "101 ± 1", "unit": "%"}, {"measurement": "survival", "setting": "neo +/+ transgenic mice; 778 mg/kg single i.p.", "value": "surv (surv, animals survived the 10 day period)"}, {"measurement": "body weight, percentage of the body weight before the experiment", "setting": "neo +/+ transgenic mice; 1140 mg/kg single i.p.", "value": "100 ± 1", "unit": "%"}, {"measurement": "survival", "setting": "neo +/+ transgenic mice; 1140 mg/kg single i.p.", "value": 1, "unit": "days"}, {"measurement": "increase of the approximate lethal dose", "setting": "neo +/+ transgenic mice; neoR expression in transgenic animals vs wild type", "value": 10, "unit": "fold"}, {"measurement": "time to death due to breath failure after injection", "setting": "neo +/+ transgenic mice; neo^R transgenic animals, highest dose 1140 mg/kg", "value": "≤ 10", "unit": "min"}, {"measurement": "ALT", "setting": "neo^R mice", "value": "54.3 ± 14.4", "unit": "u/l"}, {"measurement": "BUN", "setting": "neo^R mice", "value": "22.3 ± 0.9", "unit": "mg/dL"}, {"measurement": "CRE", "setting": "neo^R mice", "value": "0.23 ± 0.05", "unit": "mg/dL"}, {"measurement": "ALT", "setting": "wildtype mice", "value": "102.0 ± 9.4", "unit": "u/l"}, {"measurement": "BUN", "setting": "wildtype mice", "value": "96.0 ± 14.2", "unit": "mg/dL"}, {"measurement": "CRE", "setting": "wildtype mice", "value": "0.67 ± 0.05", "unit": "mg/dL"}]}]}
